In patent US6881756B2, “Method for treating skin disorders” (Johnson & Johnson Consumer Companies, Inc., priority 2001, dated 2005):

Key:
Albino male CD-1 mice [1] = experiment: Allergic contact dermatitis model: oxazolone-induced ear swelling; type: in vivo, mouse; conditions: for % Inhibition of the Ear Swelling Response: 20 μL to left ear 1 hour after oxazolone challenge, ear biopsy weight at 24 hours
Method: Allergic contact dermatitis is an animal model of skin inflammation that mimics many aspects of human skin inflammation. See Young J M, De Young L M, Cutaneous Models of Inflammation for the Evaluation of Topical and Systemic Pharmacological Agents; In: Pharmacological Methods in the Control of Inflammation, Alan R. Liss, Inc, pp. 215-231 (1989). […] The inflammatory response is established by using oxazolone as the chemical sensitizer. A topical anti-inflammatory agent is assessed by measuring its ability to suppress the ear swelling reaction after applying a challenge dose of oxazolone to the ear followed by the test agent.
In this assay, the totarol (Mende-DEK Limited, Masterton, New Zealand) was evaluated against hydrocortisone, a steroid known to inhibit allergic contact dermatitis. Albino male CD-1 mice, 7-9 weeks old, were induced on the shaved abdomen with 50 μL of 3% oxazolone in acetone/corn oil (Day 0). On Day 5, a 20 μL volume of 2% oxazolone in acetone was applied to the dorsal left ear of the mouse. Test agents were applied to the left ear (20 μL) 1 hour after oxazolone challenge in a 70% ethanol/30% propylene glycol vehicle. The right ear was not treated. The mice were sacrificed by CO2 inhalation 24 hours after the oxazolone challenge, the left and right ears were removed and a 7-mm biopsy was taken from each ear and weighed. Anti-inflammatory effects of compounds are evident as an inhibition of the increase in ear weight.

Albino male CD-1 mice [2] = experiment: Neurosensory (neurogenic) inflammation model: resiniferatoxin-induced ear edema; type: in vivo, mouse; conditions: for activity in the neurosensory inflammation model (in words): resiniferatoxin ear edema model, overall; for % Inhibition of the Ear Edema: 20 μl to left ear, biopsy weight at 30 minutes
From the text: Neurosensory inflammation, also referred to as neurogenic inflammation, is a type of inflammation triggered by sensory nerve activation in skin. Certain natural substances that act on vanilloid receptors cause the nerves (C-fibers) to release inflammatory neuropeptides such as substance P and calcitonin gene-related peptide. In mouse skin, an edema response rapidly occurs upon application of either the vanilloid receptor activators, capsaicin or resiniferatoxin. Compounds that inhibit the response to neurosensory stimulation could be useful as topical analgesics, itch inhibitors or soothing agents for irritated or damaged skin. See U.S. Pat. No. 6,090,811.
Albino male CD-1 mice, 7-9 weeks old, were used. Resiniferatoxin alone (0.05%) or a combination of 0.05% resiniferatoxin with test compound was made in acetone. A 20-μl volume of the solutions was applied to the left ears (10 mice per treatment group). The right ear was not treated. The mice were sacrificed by CO2 inhalation 30 minutes after applying the solutions. The left and right ears were removed and a 7-mm biopsy was removed from each ear and weighed. The difference in biopsy weights between the right and left ear was calculated. The percent inhibition was calculated by comparing treatments to resiniferatoxin alone. Anti-edema effects of compounds are evident as an inhibition of the increase in ear weight.

Row | SMILES | % Inhibition of the Ear Swelling Response (Albino male CD-1 mice [1]; topical dose 0.001% w/v) [%] | % Inhibition of the Ear Swelling Response (Albino male CD-1 mice [1]; topical dose 0.01% w/v) [%] | % Inhibition of the Ear Swelling Response (Albino male CD-1 mice [1]; topical dose 0.1% w/v) [%] | topical anti-inflammatory activity (in words) (Albino male CD-1 mice [1]; oxazolone allergic contact dermatitis model, overall) | % Inhibition of the Ear Swelling Response (Albino male CD-1 mice [1]; topical dose 0.03% w/v) [%] | % Inhibition of the Ear Swelling Response (Albino male CD-1 mice [1]; topical dose 0.3% w/v) [%] | % Inhibition of the Ear Swelling Response (Albino male CD-1 mice [1]; topical dose 1% w/v) [%] | activity compared with hydrocortisone (in words) (Albino male CD-1 mice [1]; totarol at its two highest doses vs highest dose of hydrocortisone) | activity in the neurosensory inflammation model (in words) (Albino male CD-1 mice [2]) | % Inhibition of the Ear Edema (Albino male CD-1 mice [2]; topical dose 1% w/v with 0.05% resiniferatoxin in acetone) [%] | % Inhibition of the Ear Edema (Albino male CD-1 mice [2]; topical dose 0.5% w/v with 0.05% resiniferatoxin in acetone) [%]
1 | C[C@]12CCC(=O)C=C1CC[C@@H]1[C@@H]2[C@@H](O)C[C@@]2(C)[C@H]1CC[C@]2(O)C(=O)CO [Hydrocortisone, reference compound] | 36.0 | 65.5 | 84.2 | – | – | – | – | – | – | – | –
2 | CC(C)c1c(O)ccc2c1CC[C@H]1C(C)(C)CCC[C@]21C [Totarol] | – | – | – | highly effective as a topical anti-inflammatory agent with dose-dependent inhibition of the inflammatory response | 44.6 | 80.0 | 82.3 | equivalent in activity to the highest dose of hydrocortisone | highly effective | 46.6 | –
3 | CCCCC/C=C\C/C=C\C/C=C\C/C=C\CCCC(=O)NCc1ccc(O)c(OC)c1 [Arvanil, reference compound] | – | – | – | – | – | – | – | – | also active | – | 26.8
